These results are taken from patent US20190029960A1, “Therapeutic Nanoparticles Having EGFR Ligands and Methods of Making and Using Same” (Pfizer Inc., priority 2016, published 2019).

pIC50: −log10 of the molar value.

The target of one assay is T1, recombinant human EGFR (Homo sapiens, UniProt P00533).
T1 construct: Fc; purchased R&D Systems
As to the kind of experiment: EGF competition ELISA. Type of assay: binding. Here is the method:
Plates were blocked for 2 h with 2% BSA in PBS at RT. […] Plates were washed three times with PBS containing 0.05% Tween-20 (PBS-T) and then incubated with a 1:10,000 dilution of streptavidin-HRP (Thermo Fisher Scientific) diluted in assay buffer for 90 min at RT. Plates were washed an additional three times with PBS-T, and then incubated with TMB substrate (BioFx) for 15 min at RT. Reactions were stopped with stop solution (BioFx) and absorbance was read at 450 nm in a microplate reader (SpectraMax M5e, Molecular Devices).
Plates were blocked for 2 hours with 2% BSA in PBS at room temperature (RT). […] Peptides were reconstituted as 100% DMSO stocks, resulting in a final concentration of DMSO in the assay of 2% for all samples. Plates were washed three times with PBS containing 0.05% Tween-20 (PBS-T) and then incubated with a 1:10,000 dilution of streptavidin-HRP (Piece) diluted in assay buffer for 90 minutes at RT. Plates were washed an additional three times with PBS-T and then incubated with TMB substrate (BioFx) for 15 minutes at RT. The reaction was stopped with stop solution (BioFx) and absorbance was read at 450 nm in a microplate reader (SpectraMax M5e, Molecular Devices).
In general terms: ELISA stands for enzyme-linked immunosorbent assay.

The target of assay [1] is T2, Fc tagged recombinant human EGFR (rhEGFR-Fc) (Homo sapiens, UniProt P00533).
T2 construct: purchased R&D Systems 344-ER-050
T2 sequence (P00533 with tags, fused parts or gaps limits assumed): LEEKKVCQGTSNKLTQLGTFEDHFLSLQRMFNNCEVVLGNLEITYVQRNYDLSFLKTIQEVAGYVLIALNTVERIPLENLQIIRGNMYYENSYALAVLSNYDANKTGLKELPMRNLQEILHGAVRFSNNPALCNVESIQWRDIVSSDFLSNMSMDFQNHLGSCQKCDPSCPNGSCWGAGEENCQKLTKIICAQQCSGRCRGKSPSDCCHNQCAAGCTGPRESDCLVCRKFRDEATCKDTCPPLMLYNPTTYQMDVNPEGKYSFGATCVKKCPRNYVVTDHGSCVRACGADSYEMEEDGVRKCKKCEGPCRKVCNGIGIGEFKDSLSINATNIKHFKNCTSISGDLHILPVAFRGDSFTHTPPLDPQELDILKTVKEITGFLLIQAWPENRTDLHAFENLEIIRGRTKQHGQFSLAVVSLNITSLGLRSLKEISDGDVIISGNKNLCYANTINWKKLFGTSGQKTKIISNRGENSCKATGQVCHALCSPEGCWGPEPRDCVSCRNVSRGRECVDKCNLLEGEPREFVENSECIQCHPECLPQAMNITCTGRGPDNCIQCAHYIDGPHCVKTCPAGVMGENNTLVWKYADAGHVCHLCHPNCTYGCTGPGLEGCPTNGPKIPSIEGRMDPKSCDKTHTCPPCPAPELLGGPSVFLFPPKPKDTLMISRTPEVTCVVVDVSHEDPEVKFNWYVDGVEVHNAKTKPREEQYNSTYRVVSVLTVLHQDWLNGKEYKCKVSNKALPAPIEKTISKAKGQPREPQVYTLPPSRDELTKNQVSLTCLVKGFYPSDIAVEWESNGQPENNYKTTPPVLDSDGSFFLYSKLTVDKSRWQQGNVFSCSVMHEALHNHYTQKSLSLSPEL
Type of assay: binding. As to conditions: Without EGF. The procedure: (§1) Surface plasmon resonance (SPR) binding studies were carried out on a Biacore T200 instrument (GE Healthcare). Approximately 10,000 RU of anti-Fc antibody (GE Healthcare, Cat #BR100839) was immobilized via amine coupling on each of flow cells 1 and 2 of a CM5 dextran-coated gold sensor chip (GE Healthcare, Cat #BR100530). […] The contact time and resulting amount of rhEGFR-Fc capture was varied based on the nature of the analyte, namely whether it was a peptide or nanoparticle.
(§2) Peptide binding assays were carried out in 10 mM PBS buffer supplemented with 0.05% surfactant P20 and 5% DMSO by volume, at 25° C. Peptides were injected over the rhEGFR-Fc surface for 60 s, followed by dissociation (buffer injection) for 60 s and regeneration with a 10 s pulse of 3M MgCl2. A fresh rhEGFR-Fc surface was generated for each concentration of each peptide tested. Peptide binding data was analyzed by fitting to a 1:1 Langmuir kinetic model to obtain the on-rate (ka), off-rate (kd) and/or equilibrium binding constant (KD) of the interaction.

The next assay addresses T3, EGF bound EGFR (Homo sapiens, UniProt P00533).
T3 construct: purchased R&D Systems 344-ER-050 (rhEGFR-Fc); 236-EG (rhEGF)
As to the kind of experiment: SPR peptide binding, rhEGF pre-injected. Conditions: With EGF. Here is the method:
as §1, §2

T1 sequence (P00533 with tags, fused parts or gaps limits assumed): as above
T3 sequence (P00533 with tags, fused parts or gaps limits assumed): as above
T3 sequence (P01133 971-1023 partner limits assumed): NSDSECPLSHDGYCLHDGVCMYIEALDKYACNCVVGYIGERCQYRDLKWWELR

On to `CC[C@H](C)[C@H](NC(=O)[C@@H]1CSSC[C@H](NC(=O)[C@H](CCC(=O)O)NC(=O)[C@H](CO)NC(C)=O)C(=O)N[C@@H](Cc2ccccc2)C(=O)N2CCC[C@H]2C(=O)N[C@@H](C)C(=O)N[C@@H](C)C(=O)N2CCC[C@H]2C(=O)N[C@@H](CC(=O)O)C(=O)N[C@@H](Cc2c[nH]c3ccccc23)C(=O)N[C@@H](CC(C)C)C(=O)N[C@@H](CO)C(=O)N1)C(=O)N[C@@H](CC(C)C)C(=O)NCC(=O)NCC(=O)N[C@@H](CCCCNC(=O)CCOCCOCCOCCOCCOCCNC(=O)CCC(=O)N1Cc2ccccc2C#Cc2ccccc21)C(N)=O` [Peptide P1-3], for which the pIC50 – broadly, the negative decadic logarithm of the IC50, by convention in mol/L – at recombinant human EGFR was 5.39.

`CC(=O)N[C@@H](CC(=O)O)C(=O)N1CCC[C@H]1C(=O)N[C@H]1CSSC[C@@H](C(=O)N[C@@H](CC(C)C)C(=O)N[C@@H](CCC(N)=O)C(=O)NCC(=O)NCC(=O)N[C@@H](CCCCNC(=O)CCOCCOCCOCCOCCOCCNC(=O)CCC(=O)N2Cc3ccccc3C#Cc3ccccc32)C(N)=O)NC(=O)[C@H](CCC(=O)O)NC(=O)[C@H](CCCNC(=N)N)NC(=O)CNC(=O)[C@H](Cc2c[nH]c3ccccc23)NC(=O)[C@H](C(C)C)NC(=O)[C@H](CCC(=O)O)NC(=O)[C@H](Cc2c[nH]c3ccccc23)NC(=O)[C@H]([C@@H](C)O)NC1=O` [Peptide P2]: the figures for the kd (in assay [1]; on EGF bound EGFR) were 9 ± 2 × 10^−3 s^−1 and 7 ± 2 × 10^−3 s^−1, respectively.
